Where no end group is shown, it is not given here.
Assays:
[1] = test system: rat pituitary adenoma cells, RC-4B/C; assay: cAMP production in pituitary cells (cAMP Biotrak enzyme immunoassay); type: cell-based; conditions: 100 nM peptide, 30 min, in presence of IBMX; PBS-control 100% = 4.94±0.5 pmol/mg protein
Experimental: Rat pituitary adenoma cells, RC-4B/C (CRL-1903; ATCC, Manassas, VA, USA), were cultured in Dulbecco's Modified Eagle's Medium and Minimum Essential Alpha Medium (Invitrogen, CA, USA) supplemented with 0.01 mM non-essential amino acids, 15 mM HEPES, 2.5 ng/ml epidermal growth factor, and dialyzed, heat-inactivated fetal bovine serum (“FBS”) at 37° C. in a humidified cell incubator containing 5% carbon dioxide (“CO2”). After 2 days of cell cultured in 24 wells plate, cell were equilibrated for 2 hours in serum-free medium and then incubated with 0.1 mM 3-isobutyl-1-methylxanthine (“IBMX”) in serum-free medium 30 min again. Then, cells were challenged with either 100 nM of […]-NH2 (SEQ. ID NO: 7), DVQPPGLKVWSDPFG (SEQ. ID NO: 3), DVQPPGLKVWSDPF-NH2 (SEQ. ID NO: 9), or a PBS-control in the presence of IBMX and incubated for 30 min. After incubation, supernatant medium was then aspirated and the cells in each well were extracted by 70% cold ethanol. Alcohol was evaporated in a vacuum concentrator (PN: AES 2000, Savant, Hicksvile, NY, USA) Thereafter, cAMP content was determined by using a cAMP Biotrak enzyme immunoassay kit (GE healthcare-Amersham, Piscataway, NJ, USA) in accordance with the protocol of the manufacturer.

[2] = test system: antibodies raised to AGIVQEDVQPPGLKVWSDPF-NH2 (SEQ. ID NO: 7); assay: RIA/EIA cross-reactivity of anti-phoenixin antibodies; type: binding; conditions: RIA or EIA
Experimental: Homogenates were prepared from heart tissues of adult rats. The supernatant of the rat heart homogenates were passed through C18 column extraction cartridges and P6 gel filtration to further purify native peptide candidates. The immunoreactive fractions as determined by conventional enzyme immunoassay (“EIA”) in which labeled chemically synthesized peptides as described above compete with unlabeled native phoenixin peptide for a limited quantity of the anti-phoenixin peptide antibodies, produced as above described. The label can be biotin complex which by reaction with streptavidin horseradish peroxidase and sequent reaction of the horseradish peroxidase with colormetric or fluorescence substrates can be quantitated. […]
Homogenates of porcine or bovine or rat tissue of heart, lung, kidney, spinal cord, small intestine, liver, pancreas, hypothalamus, spleen, and thymus were prepared as above-described and the resulting fractions were processed by the above-described peptides extraction procedure and were assayed by radio-immunoassay (“[…]”) or Enzyme Immunoassay (EIA) using antibodies raised to […]-NH2 (SEQ. ID NO: 7). […] Protein concentrations were determined by bicinchoninic acid (“BCA”) protein assay in accordance to the protocol of the manufacturer Thermo Scientific, Rockford, Illinois using bovine serum albumin (“BSA”) as a standard. […]

[3] = test system: rat pituitary adenoma cells, RC-4B/C; type: binding
Experimental: Also, rat pituitary adenoma cells, RC-4B/C cells, were used in the assay of radioligand binding. For the binding displacement, cells were incubated for 30 min with 50 pM 125I-Y0-Phoenixin-20 (amide SEQ. ID NO: 7) in the absence or presence of increasing concentrations of un-labeled Phoenixin-20 amide (amide SEQ. ID NO: 7) or phoenixin-14 amide (amide SEQ. ID NO: 9). Nonspecific binding was defined as total binding in the presence of 1 μM unlabeled Phoenixin-20 amide (amide SEQ. ID NO: 7) or phoenixin-14 amide (amide SEQ. ID NO: 9). After termination of the binding reaction by washing the cells with 1 ml of cold PBS, cells were solubilized with 0.5 ml of 1% SDS, and radioactivity was detected in a gamma counter.

Substance | increase of intracellular cAMP production over the PBS control [1] | cross-reactive with antibodies raised to SEQ. ID NO: 7 [2] | IC50 [3] [nM]
DVQPPGLKVWSDPF-NH2 [SEQ. ID NO: 9, phoenixin (7-20) amide] | greater than two fold and even three-fold | 100% | 17.9
AGIVQEDVQPPGLKVWSDPF-NH2 [SEQ. ID NO: 7, phoenixin (1-20) amide] | greater than two fold and even three-fold |  | 21.5
phoenixin (7-21) (DVQPPGLKVWSDPFG; listed as Homo sapiens) [SEQ. ID NO: 3] | greater than two fold and even three-fold | less than 0.5% | 

— patent US12103965B2, “Diagnostic kit” (Phoenix Pharmaceuticals, Inc., priority 2011, dated 2024)
